Source: ChEMBL document CHEMBL1201862, “PubChem BioAssay data set” (2004)
Active and inactive are the calls of the source.

Legend:
[1] = viability loss in THP-1 monocytes – THP-1 cells, cytotoxicity control for Vif-APOBEC3G degradation inhibitor project, dose response (AID 1117359); type: functional; details: THP-1
Cytochrome P450 2D6 = Cytochrome P450 2D6 (Homo sapiens, UniProt P10635);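 note: CYP2D6 member of a cytochrome P450 panel assay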
Cytochrome P450 3A4 = Cytochrome P450 3A4 (Homo sapiens, UniProt P08684); details: Potency;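 note: confirmatory qHTS run detecting inhibitors and substrates of CYP3A4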
Sequence of Cytochrome P450 3A4 (P08684 whole entry): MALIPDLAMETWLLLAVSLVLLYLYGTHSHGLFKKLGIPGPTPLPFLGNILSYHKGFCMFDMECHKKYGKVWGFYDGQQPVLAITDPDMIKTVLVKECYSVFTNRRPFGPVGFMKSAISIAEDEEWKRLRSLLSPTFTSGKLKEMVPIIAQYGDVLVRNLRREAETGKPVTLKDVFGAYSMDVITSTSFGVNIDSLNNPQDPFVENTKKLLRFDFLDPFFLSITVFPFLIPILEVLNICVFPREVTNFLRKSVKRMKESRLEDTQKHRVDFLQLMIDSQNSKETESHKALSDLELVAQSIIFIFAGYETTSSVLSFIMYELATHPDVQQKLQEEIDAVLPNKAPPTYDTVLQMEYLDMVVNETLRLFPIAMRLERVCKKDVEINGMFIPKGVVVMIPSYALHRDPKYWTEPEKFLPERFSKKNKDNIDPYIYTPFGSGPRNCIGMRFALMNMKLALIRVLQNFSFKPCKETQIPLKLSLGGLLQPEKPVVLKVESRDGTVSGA

HeLa = test: viability loss in HeLa cells – cell-based, 24 h, cherry-picked samples, cytotoxicity control, dose response (AID 504726); type: functional; details: Homo sapiens;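 note: potency for cytotoxicity as loss of luminescence signal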
[2] = biological target: T1, Voltage-gated N-type calcium channel alpha-1B subunit/Amyloid beta A4 precursor protein-binding family A member 1 (Homo sapiens, UniProt Q00975+Q02410); type: protein assay
T1 sequence (Q00975 whole entry): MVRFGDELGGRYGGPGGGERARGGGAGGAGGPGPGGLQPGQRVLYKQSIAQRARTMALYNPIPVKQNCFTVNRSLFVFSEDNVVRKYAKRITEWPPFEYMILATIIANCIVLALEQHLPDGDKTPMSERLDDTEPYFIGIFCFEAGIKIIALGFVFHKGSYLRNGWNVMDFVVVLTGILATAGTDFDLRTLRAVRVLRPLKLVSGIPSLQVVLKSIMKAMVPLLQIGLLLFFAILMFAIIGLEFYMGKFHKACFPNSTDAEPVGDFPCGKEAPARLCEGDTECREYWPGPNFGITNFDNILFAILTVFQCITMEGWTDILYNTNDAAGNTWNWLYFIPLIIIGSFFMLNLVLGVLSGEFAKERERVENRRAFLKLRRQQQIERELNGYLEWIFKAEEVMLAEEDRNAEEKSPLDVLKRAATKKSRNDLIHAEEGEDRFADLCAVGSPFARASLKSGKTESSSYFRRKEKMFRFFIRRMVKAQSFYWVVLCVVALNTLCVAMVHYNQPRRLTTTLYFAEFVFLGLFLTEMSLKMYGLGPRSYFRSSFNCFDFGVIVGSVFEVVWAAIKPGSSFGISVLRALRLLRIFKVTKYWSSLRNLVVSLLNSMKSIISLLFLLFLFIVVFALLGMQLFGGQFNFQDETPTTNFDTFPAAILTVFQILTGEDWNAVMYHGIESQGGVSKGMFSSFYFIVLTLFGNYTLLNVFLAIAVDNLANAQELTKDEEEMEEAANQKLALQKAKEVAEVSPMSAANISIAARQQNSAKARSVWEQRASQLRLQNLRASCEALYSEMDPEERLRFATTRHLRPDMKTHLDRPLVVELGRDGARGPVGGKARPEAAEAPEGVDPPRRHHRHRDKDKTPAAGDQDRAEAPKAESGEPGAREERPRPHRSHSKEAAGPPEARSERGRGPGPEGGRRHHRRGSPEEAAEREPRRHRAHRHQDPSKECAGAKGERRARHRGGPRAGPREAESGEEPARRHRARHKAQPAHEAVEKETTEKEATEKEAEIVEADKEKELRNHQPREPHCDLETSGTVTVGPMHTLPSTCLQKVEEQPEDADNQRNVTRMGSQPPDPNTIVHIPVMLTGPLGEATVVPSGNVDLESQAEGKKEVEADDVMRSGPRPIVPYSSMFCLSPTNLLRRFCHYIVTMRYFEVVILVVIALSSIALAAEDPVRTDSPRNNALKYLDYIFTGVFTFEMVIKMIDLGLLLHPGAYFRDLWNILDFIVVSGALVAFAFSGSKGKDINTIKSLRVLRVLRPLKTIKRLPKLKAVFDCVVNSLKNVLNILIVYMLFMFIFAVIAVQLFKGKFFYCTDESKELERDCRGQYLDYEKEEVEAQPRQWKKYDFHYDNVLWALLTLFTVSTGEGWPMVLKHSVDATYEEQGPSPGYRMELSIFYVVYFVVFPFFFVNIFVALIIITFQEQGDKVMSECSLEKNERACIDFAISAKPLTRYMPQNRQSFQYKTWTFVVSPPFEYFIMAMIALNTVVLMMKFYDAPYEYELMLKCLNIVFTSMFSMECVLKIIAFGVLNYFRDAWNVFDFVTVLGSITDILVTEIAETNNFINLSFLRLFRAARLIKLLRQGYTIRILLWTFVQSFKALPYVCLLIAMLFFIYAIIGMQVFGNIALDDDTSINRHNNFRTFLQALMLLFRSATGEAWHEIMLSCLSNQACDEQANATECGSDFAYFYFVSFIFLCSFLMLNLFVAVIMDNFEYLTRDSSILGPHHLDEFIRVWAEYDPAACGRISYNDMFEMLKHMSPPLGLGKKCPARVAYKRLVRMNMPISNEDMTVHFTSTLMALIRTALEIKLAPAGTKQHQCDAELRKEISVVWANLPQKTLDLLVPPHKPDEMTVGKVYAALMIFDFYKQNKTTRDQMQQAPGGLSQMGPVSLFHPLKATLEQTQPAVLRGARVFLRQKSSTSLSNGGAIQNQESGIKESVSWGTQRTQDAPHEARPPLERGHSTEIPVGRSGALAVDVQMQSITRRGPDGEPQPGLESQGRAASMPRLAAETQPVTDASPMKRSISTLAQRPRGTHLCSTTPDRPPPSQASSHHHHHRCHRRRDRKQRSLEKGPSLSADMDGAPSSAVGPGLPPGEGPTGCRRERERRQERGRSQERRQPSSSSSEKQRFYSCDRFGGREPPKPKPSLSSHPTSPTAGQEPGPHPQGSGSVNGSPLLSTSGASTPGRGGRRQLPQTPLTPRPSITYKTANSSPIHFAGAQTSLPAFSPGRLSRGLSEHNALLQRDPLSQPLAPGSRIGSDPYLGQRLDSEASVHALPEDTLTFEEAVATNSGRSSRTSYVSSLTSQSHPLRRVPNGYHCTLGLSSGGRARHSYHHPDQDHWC
T1 sequence (Q02410 whole entry): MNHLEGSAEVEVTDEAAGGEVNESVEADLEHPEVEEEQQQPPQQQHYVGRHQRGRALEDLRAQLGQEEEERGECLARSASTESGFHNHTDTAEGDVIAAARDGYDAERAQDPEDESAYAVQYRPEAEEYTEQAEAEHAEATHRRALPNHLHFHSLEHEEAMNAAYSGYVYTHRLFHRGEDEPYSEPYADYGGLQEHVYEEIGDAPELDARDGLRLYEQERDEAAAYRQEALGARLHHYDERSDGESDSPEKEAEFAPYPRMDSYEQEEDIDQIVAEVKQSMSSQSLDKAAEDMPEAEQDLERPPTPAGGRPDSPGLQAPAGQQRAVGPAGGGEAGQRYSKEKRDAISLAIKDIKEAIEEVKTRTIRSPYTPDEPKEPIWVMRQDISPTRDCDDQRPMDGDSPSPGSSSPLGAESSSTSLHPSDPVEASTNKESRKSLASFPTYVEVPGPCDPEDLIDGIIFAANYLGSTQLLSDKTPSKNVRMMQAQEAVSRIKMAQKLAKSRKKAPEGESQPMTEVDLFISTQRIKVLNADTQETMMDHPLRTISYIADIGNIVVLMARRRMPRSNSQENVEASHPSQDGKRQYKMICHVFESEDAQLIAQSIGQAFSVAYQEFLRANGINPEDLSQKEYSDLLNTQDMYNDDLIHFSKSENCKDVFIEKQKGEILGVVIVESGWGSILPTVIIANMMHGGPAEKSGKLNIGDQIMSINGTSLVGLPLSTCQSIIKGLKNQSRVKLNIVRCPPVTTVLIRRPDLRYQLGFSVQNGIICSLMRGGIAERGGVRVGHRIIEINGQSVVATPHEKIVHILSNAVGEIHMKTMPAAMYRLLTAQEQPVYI

[3] = biological target: T1, Voltage-gated N-type calcium channel alpha-1B subunit/Amyloid beta A4 precursor protein-binding family A member 1; type: protein assay; remark: listed apart in the source
[4] = luciferase reporter signal suppression in cells – H4 neuroglioma cells, luminescence, dose response (AID 1990); type: functional, cell-based
[5] = blockade of melanocortin 4 receptor signaling – cell-based, plate reader, cherry pick, counter-screen for LGR2 antagonist project, dose response (AID 743444); type: functional;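 note: transfected HEK 293 cells stimulated with alpha-MSH peptide; potency of inhibitors of the alpha-MSH evoked signal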
[6] = biological target: Luciferin 4-monooxygenase (Photinus pyralis, UniProt P08659); test: inhibition of purified Photinus pyralis luciferase – biochemical, luminescence, dose response (AID 1891)
[7] = Luminescence Cell-Based Dose Confirmation HTS to Identify Inhibitors of Platelet Dense Granule Release. [Related pubchem assays: 1663 (Primary HTS), 1678 (Summary of Project)]; type: functional
[8] = viability loss in HEK293 cells – cell-based, plate reader, cherry-picked samples, cytotoxicity control, dose response (AID 743446); type: functional
[9] = blockers of bursicon-stimulated LGR2 cAMP reporter – cell-based, HEK293, CRE-luciferase reporter, cherry pick, set 2, dose response (AID 743343); type: functional;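 note: transfected cells were stimulated with diluted bursicon conditioned medium after compound addition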
[10] = A549 cell cytotoxicity, dose response, cytotoxicity control, plate reader, cherry-pick, antagonist series (AID 743412); type: functional, cell-based
[11] = biological target: T2, Heat shock factor protein 1 (Mus musculus, UniProt P38532); test: decrease of HSF1-responsive luciferase luminescence – cell-based, NIH3T3, dose retest, confirmation (AID 2382); type: functional;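 note: NIH3T3 fibroblasts with HSF1-driven luciferase reporter stressed by proteasome inhibitor MG132; luminescence from HSF1-driven luciferase expression after 8 hours of MG132 stress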
T2 sequence (P38532 whole entry): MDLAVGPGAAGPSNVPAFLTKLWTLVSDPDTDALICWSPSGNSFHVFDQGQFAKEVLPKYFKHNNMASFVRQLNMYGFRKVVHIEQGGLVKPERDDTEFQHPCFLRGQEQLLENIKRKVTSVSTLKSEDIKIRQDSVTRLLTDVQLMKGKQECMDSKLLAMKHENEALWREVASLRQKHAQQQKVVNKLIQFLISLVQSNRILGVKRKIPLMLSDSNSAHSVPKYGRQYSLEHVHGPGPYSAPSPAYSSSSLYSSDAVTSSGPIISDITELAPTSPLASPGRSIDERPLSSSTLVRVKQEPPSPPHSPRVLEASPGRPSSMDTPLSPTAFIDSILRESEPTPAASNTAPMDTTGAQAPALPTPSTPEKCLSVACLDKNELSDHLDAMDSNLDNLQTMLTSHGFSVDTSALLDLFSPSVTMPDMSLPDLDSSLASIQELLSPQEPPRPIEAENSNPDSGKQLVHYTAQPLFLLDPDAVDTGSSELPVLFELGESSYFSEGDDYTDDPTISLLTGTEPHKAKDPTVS

[12] = Luminescence Cell-Based Dose Response HTS to Identify Inhibitors of 5'UTR Stem-Loop Driven Prion Protein mRNA Translation in H4 Neuroglioblastoma Cells. [Related pubchem assays: 1827 (Project Summary), 1813 (Primary HTS)]; type: functional
[13] = alpha-synuclein stem-loop luciferase translation blockers – H4 neuroglioma cells, luminescence, confirmation (AID 1988); type: functional, cell-based
Streptococcus = test: GAS UMAA2166 growth inhibition – luminescence, BacTiterGlo, counter-screen for streptokinase expression inhibitor project, dose response (AID 1915); type: functional, organism-based;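 note: potency for reduction of bacterial viability or growth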
[14] = test system: Streptococcus sp. 'group A'; test: Streptococcus pyogenes SK(-)GAS viability under kanamycin – luminescence, BacTiterGlo, confirmation, counter-screen for streptokinase expression inhibitor project, dose response (AID 1900); type: functional, organism-based
Streptokinase A = biological target: T3, Streptokinase A (Streptococcus pyogenes serotype M1, UniProt P10520); test: viability-normalized secreted streptokinase activity reduction – plasminogen activation absorbance, OD405, dose response (AID 1914); type: functional, Streptococcus pyogenes M1 GAS;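 note: secreted streptokinase activity via plasminogen activation per viability signal from cell pellet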
T3 sequence (P10520 whole entry): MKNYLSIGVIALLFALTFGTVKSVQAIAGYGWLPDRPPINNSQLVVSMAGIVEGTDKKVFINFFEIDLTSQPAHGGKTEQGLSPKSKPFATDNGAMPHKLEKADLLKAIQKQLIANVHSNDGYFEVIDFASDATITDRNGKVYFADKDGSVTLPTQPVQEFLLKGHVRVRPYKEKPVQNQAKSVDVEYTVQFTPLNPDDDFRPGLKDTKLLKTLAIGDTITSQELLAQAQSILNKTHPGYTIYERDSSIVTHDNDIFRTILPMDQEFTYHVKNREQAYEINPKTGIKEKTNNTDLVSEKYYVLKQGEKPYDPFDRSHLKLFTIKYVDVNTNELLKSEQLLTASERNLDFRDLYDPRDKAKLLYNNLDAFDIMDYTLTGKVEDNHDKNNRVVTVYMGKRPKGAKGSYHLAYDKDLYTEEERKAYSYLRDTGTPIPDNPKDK

[15] = biological target: T4, Short transient receptor potential channel 4 (Mus musculus, UniProt Q9QUQ5); test: block of DAMGO-driven TRPC4 calcium entry – cell-based, HEK293 TRPC4/mu-opioid, Fluo-4 calcium, dose response (AID 434942); type: functional;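 note: potency of inhibitors blocking the TRPC4 calcium response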
T4 sequence (Q9QUQ5 whole entry): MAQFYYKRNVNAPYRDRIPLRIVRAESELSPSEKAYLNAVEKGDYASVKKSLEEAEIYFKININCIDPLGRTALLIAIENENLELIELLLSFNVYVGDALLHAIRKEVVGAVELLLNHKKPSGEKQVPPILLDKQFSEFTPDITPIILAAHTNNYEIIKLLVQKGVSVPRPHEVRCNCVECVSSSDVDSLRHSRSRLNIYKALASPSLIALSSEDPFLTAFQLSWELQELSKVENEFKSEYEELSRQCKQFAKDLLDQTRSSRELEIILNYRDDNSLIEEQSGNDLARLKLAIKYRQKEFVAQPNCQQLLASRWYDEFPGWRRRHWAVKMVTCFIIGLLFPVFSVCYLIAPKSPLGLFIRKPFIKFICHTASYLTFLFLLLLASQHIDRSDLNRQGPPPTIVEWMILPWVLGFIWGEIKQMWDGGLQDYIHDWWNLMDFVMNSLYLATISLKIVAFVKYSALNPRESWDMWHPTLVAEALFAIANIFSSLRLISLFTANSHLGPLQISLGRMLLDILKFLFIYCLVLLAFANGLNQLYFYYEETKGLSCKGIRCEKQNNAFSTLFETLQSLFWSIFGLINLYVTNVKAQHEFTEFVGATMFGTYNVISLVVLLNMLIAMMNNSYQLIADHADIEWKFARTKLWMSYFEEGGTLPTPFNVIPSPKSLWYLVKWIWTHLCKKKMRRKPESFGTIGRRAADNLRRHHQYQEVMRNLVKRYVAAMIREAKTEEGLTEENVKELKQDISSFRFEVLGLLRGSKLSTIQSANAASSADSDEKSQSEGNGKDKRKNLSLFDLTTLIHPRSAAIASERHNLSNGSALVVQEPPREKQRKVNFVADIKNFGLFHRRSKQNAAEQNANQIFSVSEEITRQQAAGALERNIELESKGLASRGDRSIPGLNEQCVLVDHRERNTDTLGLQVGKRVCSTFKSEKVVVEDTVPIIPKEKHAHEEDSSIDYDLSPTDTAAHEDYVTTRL

X-box-binding protein 1 = biological target: T5, X-box-binding protein 1 (Homo sapiens, UniProt P17861); type: functional, Cricetulus griseus;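 note: confirmatory dose-response counter-screen serving a CHOP assay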
T5 sequence (P17861 whole entry): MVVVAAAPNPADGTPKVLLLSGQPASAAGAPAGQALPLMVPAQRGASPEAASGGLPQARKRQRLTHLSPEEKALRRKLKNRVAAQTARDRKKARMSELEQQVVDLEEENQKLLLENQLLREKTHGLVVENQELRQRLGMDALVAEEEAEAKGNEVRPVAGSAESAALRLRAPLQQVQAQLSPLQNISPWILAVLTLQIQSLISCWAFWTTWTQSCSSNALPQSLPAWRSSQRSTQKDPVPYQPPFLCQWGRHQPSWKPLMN

[16] = toxicity toward HepG2 liver cells – cell-based, plate reader, cherry-pick, antagonist series, cytotoxicity control, dose response (AID 743416); type: functional
cells = type: functional
[17] = THP-1 cell cytotoxicity, dose response, cytotoxicity control for non-replicating M. tuberculosis project (AID 489025); type: functional
[18] = A cytotoxicity screen of small molecule inhibitors of the PhoP region in Salmonella typhi identified in the primary screen. [Related pubchem assays: 1850, 1864, 1985 ]; type: functional
[19] = biological target: DNA dC->dU-editing enzyme APOBEC-3A (Homo sapiens, UniProt P31941); test: A3A deaminase inhibition for selectivity – biochemical, dose response (AID 504722); type: functional
Sequence of DNA dC->dU-editing enzyme APOBEC-3A (P31941 whole entry): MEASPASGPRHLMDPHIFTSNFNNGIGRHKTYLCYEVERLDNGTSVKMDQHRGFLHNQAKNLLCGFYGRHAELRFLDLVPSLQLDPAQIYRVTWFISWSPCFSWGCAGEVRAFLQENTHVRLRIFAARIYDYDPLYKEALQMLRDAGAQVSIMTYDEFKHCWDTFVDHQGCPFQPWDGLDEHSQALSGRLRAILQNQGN

[20] = biological target: DNA dC->dU-editing enzyme APOBEC-3G (Homo sapiens, UniProt Q9HC16); test: Dose Response confirmation of small molecule APOBEC3G DNA Deaminase Inhibitors via a fluorescence-based single-stranded DNA deaminase assay. [Related pubchem assays (depositor defined):AID493012, AID493028]; type: functional
Sequence of DNA dC->dU-editing enzyme APOBEC-3G (Q9HC16 whole entry): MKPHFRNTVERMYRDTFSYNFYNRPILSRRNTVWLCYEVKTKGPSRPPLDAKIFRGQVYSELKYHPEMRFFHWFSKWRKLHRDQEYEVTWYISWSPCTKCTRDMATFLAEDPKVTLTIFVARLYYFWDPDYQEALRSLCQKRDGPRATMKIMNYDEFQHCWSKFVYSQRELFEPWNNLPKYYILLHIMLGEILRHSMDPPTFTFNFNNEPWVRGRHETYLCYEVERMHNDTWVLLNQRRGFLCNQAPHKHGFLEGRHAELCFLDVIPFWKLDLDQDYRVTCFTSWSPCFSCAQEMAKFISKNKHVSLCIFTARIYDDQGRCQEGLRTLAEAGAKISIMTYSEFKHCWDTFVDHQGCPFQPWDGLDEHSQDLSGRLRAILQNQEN

Large T antigen = Large T antigen (Simian virus 40, UniProt P03070); type: functional, Betapolyomavirus macacae;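 note: Confirmatory-stage PubChem screen for compounds that inhibit SV40 T antigen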
[21] = biological target: FAD-linked sulfhydryl oxidase ALR (Homo sapiens, UniProt P55789); test: ALR-catalysed DTT oxidation blockers – biochemical, H2O2 detection, luminescence, cherry-pick, dose response (AID 493248)
Sequence of FAD-linked sulfhydryl oxidase ALR (P55789 whole entry): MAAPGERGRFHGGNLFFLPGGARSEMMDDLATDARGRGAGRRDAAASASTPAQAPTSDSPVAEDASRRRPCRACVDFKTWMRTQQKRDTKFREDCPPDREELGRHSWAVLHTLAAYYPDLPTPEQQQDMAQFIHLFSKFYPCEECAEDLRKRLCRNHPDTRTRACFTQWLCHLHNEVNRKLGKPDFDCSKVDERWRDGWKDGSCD

Sequence of Cytochrome P450 2D6 (P10635 whole entry): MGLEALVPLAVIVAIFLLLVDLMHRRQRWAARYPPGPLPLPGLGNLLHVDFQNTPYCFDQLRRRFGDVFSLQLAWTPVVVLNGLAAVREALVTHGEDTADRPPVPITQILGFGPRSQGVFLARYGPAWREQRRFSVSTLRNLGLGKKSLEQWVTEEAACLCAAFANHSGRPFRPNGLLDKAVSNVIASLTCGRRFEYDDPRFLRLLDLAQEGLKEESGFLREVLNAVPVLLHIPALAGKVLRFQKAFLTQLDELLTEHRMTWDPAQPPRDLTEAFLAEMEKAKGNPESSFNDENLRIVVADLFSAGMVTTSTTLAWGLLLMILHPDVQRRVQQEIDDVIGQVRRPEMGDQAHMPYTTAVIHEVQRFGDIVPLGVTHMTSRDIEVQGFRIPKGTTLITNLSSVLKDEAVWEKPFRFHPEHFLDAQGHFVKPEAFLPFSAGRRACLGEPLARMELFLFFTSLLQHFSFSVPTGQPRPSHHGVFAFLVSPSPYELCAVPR

Structure (SMILES): Oc1ccc(C2Nc3cccc4cccc(c34)N2)c(O)c1
- CC50 [1]: > 40 µM (active)
- AC50 (Cytochrome P450 2D6): 25.1 µM (inconclusive)

Structure (SMILES): COCCNC(=O)[C@H](C)/C=C/C(NC(=O)OCc1ccccc1)c1ccc(C(=O)OC)cc1 (stereo not given in full)
- AC50 (Cytochrome P450 3A4): 7.94 µM (inconclusive)

Structure (SMILES): CN(C)c1ccc(/C=C2\CCCN=C2c2cccnc2)cc1
- AC50 (Cytochrome P450 3A4): 10 µM (inconclusive)

Structure (SMILES): COc1cccc(NC(=O)CN(C)CC(=O)NCc2ccco2)c1
- AC50 (HeLa): 115 µM (active)

Structure (SMILES): COC(=O)[C@@H]1C[C@@]2(O)[C@H](O)[C@H](O)[C@H](O)C[C@H]2N1Cc1c(F)cccc1Cl
- AC50 (Cytochrome P450 3A4): 25.1 µM (inconclusive)

Structure (SMILES): CCOC(=O)C(C)(C)N(Cc1ccccc1C)S(=O)(=O)c1ccc(Cl)c([N+](=O)[O-])c1
- AC50 (HeLa): 29.8 µM (active)

Structure (SMILES): CC1=C(C(=O)O)N2C(=O)[C@@H](NC(=O)CCCC(=O)O)[C@H]2SC1
- IC50 [2]: 34 µM (active)
- IC50 [3]: > 50 µM (inactive)

Structure (SMILES): O=C(Nc1ccc(-c2nc3cccnc3s2)cc1)C1CCCO1 (stereo not given)
- EC50 [4]: 6.46 µM (inconclusive)
- AC50 [5]: 2.45 µM (active)
- EC50 [6]: 6.36 µM (active)
- EC50 [7]: 4.58 µM (active)
- AC50 [8]: 38.4 µM (active)
- AC50 [9]: 1.98 µM (active)
- AC50 [10]: > 52 µM (inactive)
- EC50 [11]: 11.3 µM (active)
- EC50 [12]: 6.12 µM (active)
- EC50 [13]: 4.56 µM (active)

Structure (SMILES): CCN(c1ccc(C)cc1C)S(=O)(=O)c1nnc(NC(=O)c2ccco2)s1
- AC50 (HeLa): 60.2 µM (active)
- EC50 (Streptococcus): 43.1 µM (active)
- EC50 [14]: 2.15 µM (active)
- EC50 (Streptokinase A): 17.5 µM (active)

Structure (SMILES): C=CCN(CC(O)c1cccc([N+](=O)[O-])c1)C(C)CCc1ccccc1 (stereo not given)
- EC50 [15]: 3.35 µM (active)
- EC50 [11]: > 195 µM (not active)

Structure (SMILES): O=C(Nc1cc(Cl)ccc1O)c1cc2n(n1)C(C(F)(F)F)CC(c1ccc3c(c1)OCO3)N2 (stereo not given)
- Absolute IC50 (XBP1) (X-box-binding protein 1): 10 µM

Structure (SMILES): CCCCNCC1C(Oc2ccc(Cl)cc2)C(=O)N1c1ccccc1C (stereo not given)
- EC50 [15]: 4.22 µM (active)

Structure (SMILES): Cc1ccc(C(=O)n2c(N)nc3ccccc32)cc1
- AC50 [5]: 1.43 µM (active)
- AC50 [16]: > 52 µM (inactive)
- EC50 (Streptococcus): 115 µM (active)
- EC50 [14]: 13.2 µM (active)
- EC50 (Streptokinase A): > 150 µM (not active)
- IC50 (cells): 6.64 µM (active)
- CC50 [17]: > 40 µM (active)
- AC50 [8]: > 52 µM (inactive)
- AC50 [9]: 1.44 µM (active)
- AC50 [10]: 24.9 µM (active)

Structure (SMILES): COc1ccc(CC(=O)N(Cc2cc3cc(OC)ccc3nc2O)C(C)C)cc1
- EC50 [18]: > 50 µM (active)

Structure (SMILES): O=C(CCn1cccc1)Nc1ccc(OC(F)(F)F)cc1
- EC50 [18]: > 50 µM (active)

Structure (SMILES): C1=Nc2ccccc2CN1c1ccccc1
- EC50 [18]: > 50 µM (active)

Structure (SMILES): COc1ccc(C2=NCC(=O)N(CC(=O)NCc3ccco3)c3sc4c(c32)CCCC4)cc1OC
- CC50 [1]: > 40 µM (active)

Structure (SMILES): O=C(O)CN(CC(=O)O)Cc1cc2c(-c3ccccc3C(=O)O)c3cc(CN(CC(=O)O)CC(=O)O)c(=O)cc-3oc2cc1O
- AC50 (Cytochrome P450 3A4): 20 µM (inconclusive)

Structure (SMILES): Cc1nnc(S)n1/N=C/c1c(O)ccc2ccccc12
- IC50 [19]: > 100 µM (inactive)
- IC50 [20]: 2.42 µM (active)

Structure (SMILES): O=C1C2C(C(=O)N1/N=C/c1ccc(N3CCCCC3)o1)C1C=CC2C12CC2 (stereo not given)
- IC50 [2]: 7.24 µM (active)
- IC50 [3]: 20.1 µM (active)

Structure (SMILES): COc1cc(/C=N/n2c(S)nnc2-c2[nH]nc3c2CCC3)cc(OC)c1O
- IC50 [19]: > 100 µM (inactive)
- IC50 (Large T antigen): 24 µM (active)
- AC50 [21]: 0.011 µM (active)
- IC50 [20]: 1.81 µM (active)
